In ChEMBL document CHEMBL5465560, “Selectivity Literature for EUbOPEN Chemogenomic Library” (2024) one finds % of control data, which are given here for seven compounds.

Test [1] addresses Serine/threonine-protein kinase SBK1 (Homo sapiens) (UniProt Q52WX2). Kind of test: Selectivity interaction (KinomeScan (DiscoverX)) EUB0000695a SBK1. Conditions: at 100 nM.
Test [2] concerns the target T1, Dual specificity mitogen-activated protein kinase kinase 3 (Homo sapiens) (UniProt P46734).
T1 sequence (whole entry): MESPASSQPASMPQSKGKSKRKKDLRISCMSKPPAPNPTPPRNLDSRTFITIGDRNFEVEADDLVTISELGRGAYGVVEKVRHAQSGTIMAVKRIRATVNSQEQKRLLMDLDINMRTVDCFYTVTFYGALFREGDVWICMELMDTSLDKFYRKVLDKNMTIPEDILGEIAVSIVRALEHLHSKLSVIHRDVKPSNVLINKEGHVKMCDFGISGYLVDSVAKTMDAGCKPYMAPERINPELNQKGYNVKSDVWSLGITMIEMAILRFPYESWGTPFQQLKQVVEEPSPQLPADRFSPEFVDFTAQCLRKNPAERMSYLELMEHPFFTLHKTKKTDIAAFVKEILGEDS
Kind of test: Selectivity interaction (KinomeScan (DiscoverX)) EUB0000666a MAP2K3. The conditions noted are these: at 10 µM.

Test [3] deals with Mitogen-activated protein kinase 9 (Homo sapiens, UniProt P45984). Kind of test: Selectivity interaction (KinomeScan (DiscoverX)) EUB0000607a MAPK9. The conditions noted are these: at 10 µM.
Chain of Mitogen-activated protein kinase 9 (P45984 whole entry, looked up): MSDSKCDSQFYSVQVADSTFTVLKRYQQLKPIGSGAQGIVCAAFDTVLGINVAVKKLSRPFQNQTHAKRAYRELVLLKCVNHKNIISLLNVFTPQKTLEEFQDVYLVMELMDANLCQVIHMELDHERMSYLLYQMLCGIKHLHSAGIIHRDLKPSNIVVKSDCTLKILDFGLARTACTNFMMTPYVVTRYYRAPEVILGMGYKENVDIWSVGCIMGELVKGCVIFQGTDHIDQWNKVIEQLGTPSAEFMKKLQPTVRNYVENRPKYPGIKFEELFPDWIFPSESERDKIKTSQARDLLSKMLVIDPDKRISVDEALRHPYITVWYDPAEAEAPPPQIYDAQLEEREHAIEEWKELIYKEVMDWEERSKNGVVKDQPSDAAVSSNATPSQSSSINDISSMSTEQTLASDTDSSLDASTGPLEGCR
Test [4] concerns the target Cyclin-dependent kinase 9 (Homo sapiens, UniProt P50750). Kind of test: Selectivity interaction (Ambit KINOMEscan and KiNATiv profiling in Jurkat cells) EUB0000090b CDK9. Conditions: at 1 µM. The test is classed as cell-based.
Test [5] has as its target T2, Ephrin type-A receptor 8 (Homo sapiens) (UniProt P29322).
T2 sequence (whole entry): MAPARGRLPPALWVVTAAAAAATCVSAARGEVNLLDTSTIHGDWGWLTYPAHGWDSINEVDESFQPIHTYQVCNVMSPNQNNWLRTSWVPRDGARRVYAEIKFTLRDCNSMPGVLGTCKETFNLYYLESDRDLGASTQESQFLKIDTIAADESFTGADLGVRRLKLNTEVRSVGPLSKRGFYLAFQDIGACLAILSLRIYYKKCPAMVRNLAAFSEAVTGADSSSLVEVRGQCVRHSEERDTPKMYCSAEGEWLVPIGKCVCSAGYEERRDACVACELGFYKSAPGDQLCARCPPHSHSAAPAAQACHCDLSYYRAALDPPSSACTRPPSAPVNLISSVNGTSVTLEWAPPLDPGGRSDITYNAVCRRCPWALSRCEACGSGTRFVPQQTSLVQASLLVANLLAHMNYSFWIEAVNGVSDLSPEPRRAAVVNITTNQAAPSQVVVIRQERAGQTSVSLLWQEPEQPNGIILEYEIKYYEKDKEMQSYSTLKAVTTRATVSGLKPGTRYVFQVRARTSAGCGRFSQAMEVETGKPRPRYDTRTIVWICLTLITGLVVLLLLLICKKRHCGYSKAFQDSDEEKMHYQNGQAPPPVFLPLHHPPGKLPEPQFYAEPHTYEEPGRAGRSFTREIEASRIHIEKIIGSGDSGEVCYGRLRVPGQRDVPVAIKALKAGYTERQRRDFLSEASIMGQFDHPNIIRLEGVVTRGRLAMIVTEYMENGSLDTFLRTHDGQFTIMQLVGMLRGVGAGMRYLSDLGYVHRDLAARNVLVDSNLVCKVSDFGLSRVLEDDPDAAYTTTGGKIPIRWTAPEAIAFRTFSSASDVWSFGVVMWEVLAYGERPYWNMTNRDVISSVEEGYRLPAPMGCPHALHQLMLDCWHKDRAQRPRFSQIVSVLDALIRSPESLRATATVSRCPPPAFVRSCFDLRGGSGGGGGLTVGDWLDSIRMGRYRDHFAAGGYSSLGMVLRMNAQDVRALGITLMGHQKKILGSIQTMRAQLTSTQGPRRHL
Kind of test: Selectivity interaction (KinomeScan (DiscoverX)) EUB0001049a EPHA8. Conditions: at 1 µM.

Test [6] has as its target Calcium/calmodulin-dependent protein kinase type 1 (Homo sapiens) (UniProt Q14012). Kind of test: Selectivity interaction (KinomeScan (DiscoverX)) EUB0000618a CAMK1. Conditions: at 10 µM.
Test [7] addresses T3, Mitogen-activated protein kinase kinase kinase 5 (Homo sapiens) (UniProt Q99683).
T3 sequence (whole entry): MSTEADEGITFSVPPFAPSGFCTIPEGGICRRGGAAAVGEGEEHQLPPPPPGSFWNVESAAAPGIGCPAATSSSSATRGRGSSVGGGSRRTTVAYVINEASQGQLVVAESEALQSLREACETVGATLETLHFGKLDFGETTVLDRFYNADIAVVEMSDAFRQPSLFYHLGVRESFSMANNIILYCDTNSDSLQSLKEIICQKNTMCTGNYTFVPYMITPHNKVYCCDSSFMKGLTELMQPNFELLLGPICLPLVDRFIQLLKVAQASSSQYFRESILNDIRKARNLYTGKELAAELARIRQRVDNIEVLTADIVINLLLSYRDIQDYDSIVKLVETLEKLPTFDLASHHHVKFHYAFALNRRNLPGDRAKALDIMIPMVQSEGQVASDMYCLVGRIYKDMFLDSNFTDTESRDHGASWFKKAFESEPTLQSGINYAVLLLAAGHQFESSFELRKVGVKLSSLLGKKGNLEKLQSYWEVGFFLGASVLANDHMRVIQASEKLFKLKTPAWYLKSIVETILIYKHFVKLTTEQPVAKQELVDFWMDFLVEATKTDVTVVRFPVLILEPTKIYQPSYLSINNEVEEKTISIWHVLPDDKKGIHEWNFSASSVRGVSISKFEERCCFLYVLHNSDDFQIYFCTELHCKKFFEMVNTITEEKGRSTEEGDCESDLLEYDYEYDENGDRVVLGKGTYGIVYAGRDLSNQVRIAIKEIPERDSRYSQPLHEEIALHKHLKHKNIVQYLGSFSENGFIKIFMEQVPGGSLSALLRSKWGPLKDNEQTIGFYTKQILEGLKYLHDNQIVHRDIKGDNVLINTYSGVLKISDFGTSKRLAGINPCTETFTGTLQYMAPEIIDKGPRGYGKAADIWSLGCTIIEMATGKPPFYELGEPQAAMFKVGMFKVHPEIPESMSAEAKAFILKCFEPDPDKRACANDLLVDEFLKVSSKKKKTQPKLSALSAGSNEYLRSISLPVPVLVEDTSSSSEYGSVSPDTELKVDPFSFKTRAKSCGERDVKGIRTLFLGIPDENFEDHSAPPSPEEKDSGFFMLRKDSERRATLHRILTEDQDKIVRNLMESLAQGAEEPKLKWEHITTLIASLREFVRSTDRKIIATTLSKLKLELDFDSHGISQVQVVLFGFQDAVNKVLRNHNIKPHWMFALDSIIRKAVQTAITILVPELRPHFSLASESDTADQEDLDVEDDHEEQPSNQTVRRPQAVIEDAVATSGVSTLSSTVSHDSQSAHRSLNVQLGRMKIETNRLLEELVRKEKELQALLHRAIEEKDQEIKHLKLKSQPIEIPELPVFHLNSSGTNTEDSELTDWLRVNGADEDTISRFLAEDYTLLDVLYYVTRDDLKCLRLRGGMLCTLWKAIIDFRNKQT
Kind of test: Selectivity interaction (KinomeScan (DiscoverX)) EUB0001079a MAP3K5. The conditions noted are these: at 1 µM.

Chain of Cyclin-dependent kinase 9 (P50750 whole entry): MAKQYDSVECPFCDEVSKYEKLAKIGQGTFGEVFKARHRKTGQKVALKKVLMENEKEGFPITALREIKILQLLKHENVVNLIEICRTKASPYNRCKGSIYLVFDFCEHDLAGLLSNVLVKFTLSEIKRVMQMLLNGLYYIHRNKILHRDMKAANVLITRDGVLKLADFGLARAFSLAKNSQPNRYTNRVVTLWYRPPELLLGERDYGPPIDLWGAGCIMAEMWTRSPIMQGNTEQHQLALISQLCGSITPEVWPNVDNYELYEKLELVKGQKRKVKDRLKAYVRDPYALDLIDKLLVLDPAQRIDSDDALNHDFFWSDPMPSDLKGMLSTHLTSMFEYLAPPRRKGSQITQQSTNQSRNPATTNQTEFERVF
Chain of Calcium/calmodulin-dependent protein kinase type 1 (Homo sapiens) (Q14012 whole entry, looked up): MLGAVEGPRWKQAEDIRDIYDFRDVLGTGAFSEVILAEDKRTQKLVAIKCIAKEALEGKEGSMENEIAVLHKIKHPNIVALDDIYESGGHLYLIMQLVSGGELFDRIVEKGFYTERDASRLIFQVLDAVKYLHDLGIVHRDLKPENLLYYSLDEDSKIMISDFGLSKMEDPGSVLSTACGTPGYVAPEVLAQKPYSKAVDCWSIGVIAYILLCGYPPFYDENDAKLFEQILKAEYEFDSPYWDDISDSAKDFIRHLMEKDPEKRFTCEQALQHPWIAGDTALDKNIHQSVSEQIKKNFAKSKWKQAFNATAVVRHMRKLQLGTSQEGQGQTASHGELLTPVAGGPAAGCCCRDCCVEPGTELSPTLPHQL
Chain of Serine/threonine-protein kinase SBK1 (Homo sapiens) (Q52WX2 whole entry): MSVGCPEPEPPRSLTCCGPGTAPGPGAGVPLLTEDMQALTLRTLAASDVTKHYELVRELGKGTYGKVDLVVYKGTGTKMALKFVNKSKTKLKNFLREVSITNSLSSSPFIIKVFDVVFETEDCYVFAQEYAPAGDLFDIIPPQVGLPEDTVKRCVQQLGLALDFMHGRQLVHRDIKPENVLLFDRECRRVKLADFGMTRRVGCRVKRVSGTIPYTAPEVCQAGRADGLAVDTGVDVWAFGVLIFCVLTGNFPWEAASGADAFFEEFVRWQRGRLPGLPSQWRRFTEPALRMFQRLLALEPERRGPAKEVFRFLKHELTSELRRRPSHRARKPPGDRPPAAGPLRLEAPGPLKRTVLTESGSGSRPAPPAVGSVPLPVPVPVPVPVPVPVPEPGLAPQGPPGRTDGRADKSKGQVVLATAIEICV

Regarding `Cc1cc(F)c(C(=O)Nc2cccc(-c3nncn3C(C)C)n2)cc1-n1cnc(C2CC2)c1`, the % of control in test [1] was 93%.
The compound `O=C(NOC[C@H](O)CO)c1ccc(F)c(F)c1Nc1ccc(I)cc1F` registered a % of control in test [2] of 89%.
With `CNC(=O)Nc1ccc(-c2nc(N3CC4CCC(C3)O4)c3cnn(C4CCC5(CC4)OCCO5)c3n2)cc1`, the % of control in test [3] turned out to be 85%.
With `CN(C)C/C=C/C(=O)Nc1ccc(C(=O)N2CCCC(Nc3ncc(Cl)c(-c4c[nH]c5ccccc45)n3)C2)cc1` (configuration not stated), the % of control in test [4] was 58%.
For `COc1cc(Nc2nc(C)cc(-c3cnn4nc(OC)ccc34)n2)cc(C(F)(F)F)c1`, the % of control in test [5] turned out to be 81%.
As for `O[C@H]1CC[C@H](Nc2ncc3nc(Nc4c(F)cc(F)cc4F)n([C@H]4CCOC4)c3n2)CC1`, the % of control in test [6] worked out at 100%.
In test [7], `Nc1cnc(N2CCc3cc(S(=O)(=O)Nc4c(F)cc(Cl)cc4F)cc(N4CCCC4=O)c32)nc1` [TP-020n] yielded a % of control of 83%.
